Key:
[1] = tested on: Amaranthus retroflexus (AMARE); assay: Test 1A glasshouse assay, pre-emergence herbicidal activity; assay type: in vivo; conditions: 312 h, 250 g/ha, 13 days after application, read-out: Pre-Emergence Herbicidal Activity (% Phytotoxicity) AMARE
Protocol: (§1) Seeds of a variety of test species are sown in standard soil (usually sandy soil) in pots. After cultivation for one day (pre-emergence) or after 8 days cultivation (post-emergence) under controlled conditions in a glasshouse (at 24/16° C., day/night; 14 hours light; 65% humidity), the plants are sprayed with an aqueous spray solution derived from the formulation of the technical active ingredient (compound) in acetone/water (50:50) solution containing 0.5% Tween 20 (polyoxyethylene sorbitan monolaurate, CAS RN 9005-64-5). The test plants are then grown under controlled conditions in a glasshouse (at 24/16° C., day/night; 14 hours light; 65% humidity) and watered twice daily. 13 days after application of the test compounds, for pre- and post-emergence, the test is evaluated visually for percentage phytotoxicity to each plant (where 100%=total damage to plant; 0%=no damage to plant).
(§2) Alopecurus myosuroides (ALOMY), Setaria faberi (SETFA), Echinochloa crus-galli (ECHCG), Amaranthus retroflexus (AMARE), and Abutilon theophasti Medik. (ABUTH, common English name “velvetleaf”). Of these, Alopecurus myosuroides (ALOMY), Setaria faberi (SETFA), and Echinochloa crus-galli (ECHCG) are grassy monocotyledonous weeds.

[2] = tested on: Abutilon theophasti Medik. (ABUTH); assay: as above; assay type: in vivo; conditions: 312 h, 250 g/ha, 13 days after application, read-out: Pre-Emergence Herbicidal Activity (% Phytotoxicity) ABUTH
Protocol: as §1, §2

[3] = tested on: Setaria faberi (SETFA); assay: as above; assay type: in vivo; conditions: 312 h, 250 g/ha, 13 days after application, read-out: Pre-Emergence Herbicidal Activity (% Phytotoxicity) SET FA
Protocol: as §1, §2

[4] = tested on: ZEAMX; assay: Biological Example 3 (Test 2 glasshouse assay), post-emergence herbicidal activity; assay type: in vivo
Protocol: (§3) Seeds of a variety of monocotyledonous and dicotyledonous test plants are sown in standard soil in pots. The plants are cultivated for one day (for pre-emergence) or for about 12 days (range=10-13 days) (for post-emergence) under controlled conditions in a glasshouse (warm climate species at 24/18° C., cool climate species at 20/16° C., both at day/night; 16 hours light; 65% humidity). An “instant formulation”, known as the “IF50”, containing 50 g/litre (i.e. 5% w/v) of the “technical” (i.e. unformulated) active ingredient is prepared by dissolving the active ingredient in a mixture of organic solvents and emulsifier, details of which are provided in the Table below. This IF50 is then mixed with a small, variable amount of acetone to aid dissolution, before addition of a 0.2% v/v aqueous solution of the adjuvant X-77 (which is a mixture of alkyl aryl polyoxyethylene glycols and free fatty acids in isopropanol, CAS Registry number 11097-66-8), as the aqueous diluent, to form an aqueous spray solution which contains a predetermined concentration of the active ingredient (which varies depending on the application rate of the active ingredient to the plants) and 0.2% v/v of the adjuvant X-77. This aqueous spray solution is then sprayed onto the plants, after one day's cultivation (for pre-emergence) or after about 12 days' cultivation (for post-emergence). The test plants are then grown on, in a glasshouse (greenhouse) under controlled conditions (at either 24/18° C. or 20/16° C. (day/night) as mentioned above; 16 hours light; 65% humidity) and are watered twice daily. Either 15 days after application of the test compound (15 DAA) (for post-emergence), or 20 days after application of the test compound (20 DAA) (for pre-emergence), the test plants are evaluated visually, and an assessed percentage phytotoxicity score is given for each compound application on each plant species (where 100%=total damage to plant; 0%=no damage to plant).

[5] = tested on: POAAN; assay: as above; assay type: in vivo, Poa annua
Protocol: as §3

[6] = tested on: Triticum aestivum (TRZAW, winter wheat); assay: as above; assay type: in vivo
Protocol: (§4) Seeds of a variety of monocotyledonous and dicotyledonous test plants are sown in standard soil in pots. The plants are cultivated for one day (for pre-emergence) or for about 12 days (range=10-13 days) (for post-emergence) under controlled conditions in a glasshouse (warm climate species at 24/18° C., cool climate species at 20/16° C., both at day/night; 16 hours light; 65% humidity).
(§5) An “instant formulation”, known as the “IF50”, containing 50 g/litre (i.e. 5% w/v) of the “technical” (i.e. unformulated) active ingredient is prepared by dissolving the active ingredient in a mixture of organic solvents and emulsifier, details of which are provided in the Table below. This IF50 is then mixed with a small, variable amount of acetone to aid dissolution, before addition of a 0.2% v/v aqueous solution of the adjuvant X-77 (which is a mixture of alkyl aryl polyoxyethylene glycols and free fatty acids in isopropanol, CAS Registry number 11097-66-8), as the aqueous diluent, to form an aqueous spray solution which contains a predetermined concentration of the active ingredient (which varies depending on the application rate of the active ingredient to the plants) and 0.2% v/v of the adjuvant X-77. This aqueous spray solution is then sprayed onto the plants, after one day's cultivation (for pre-emergence) or after about 12 days' cultivation (for post-emergence).
(§6) The test plants are then grown on, in a glasshouse (greenhouse) under controlled conditions (at either 24/18° C. or 20/16° C. (day/night) as mentioned above; 16 hours light; 65% humidity) and are watered twice daily. Either 15 days after application of the test compound (15 DAA) (for post-emergence), or 20 days after application of the test compound (20 DAA) (for pre-emergence), the test plants are evaluated visually, and an assessed percentage phytotoxicity score is given for each compound application on each plant species (where 100%=total damage to plant; 0%=no damage to plant).
(§7) Cool climate crop plants: Triticum aestivum (TRZAW, winter wheat), Brassica napus (BRSNN, rape, also called oilseed rape or rapeseed), Beta vulgaris (BEAVA, sugar beet). Warm climate crop plants: Glycine max (GLXMA, soybean). Cool climate (“cool season”) grassy monocotyledonous weeds: Alopecurus myosuroides (ALOMY), Avena fatua (AVEFA), Lolium perenne (LOLPE). Warm climate (“warm season”) grassy monocotyledonous weeds: Setaria faberi (SETFA), SORVU (Sorghum bicolor (L.) Moench ssp. Bicolor, or Sorghum vulgare Pers.), Digitaria sanguinalis (DIGSA), Echinochloa crus-galli (ECHCG), and Brachiaria plantaginea (BRAPL).

[7] = tested on: Digitaria sanguinalis (DIGSA); assay: as above; assay type: in vivo
Protocol: as §4, §5, §6, §7

[8] = tested on: Brassica napus (BRSNN, rape); assay: as above; assay type: in vivo
Protocol: as §4, §5, §6, §7

| Structure (SMILES) | inhibition at 250 g/ha [1] [%] | inhibition at 250 g/ha [2] [%] | inhibition at 250 g/ha [3] [%] | Post-Emergence Herbicidal Activity (Percentage Phytotoxicity) ZEAMX ([4]; 30 g/ha (rate by row order)) [%] | Post-Emergence Herbicidal Activity (Percentage Phytotoxicity) ZEAMX ([4]; 125 g/ha (rate by row order)) [%] | Post-Emergence Herbicidal Activity (Percentage Phytotoxicity) POAAN ([5]; 30 g/ha (rate by row order)) [%] | Post-Emergence Herbicidal Activity (Percentage Phytotoxicity) POAAN ([5]; 125 g/ha (rate by row order)) [%] | Post-Emergence Herbicidal Activity (Percentage Phytotoxicity) TRZAW ([6]; 30 g/ha) [%] | Post-Emergence Herbicidal Activity (Percentage Phytotoxicity) TRZAW ([6]; 125 g/ha) [%] | Post-Emergence Herbicidal Activity (Percentage Phytotoxicity) DIGSA ([7]; 30 g/ha (rate by row order)) [%] | Post-Emergence Herbicidal Activity (Percentage Phytotoxicity) DIGSA ([7]; 125 g/ha (rate by row order)) [%] | Post-Emergence Herbicidal Activity (Percentage Phytotoxicity) BRSNN ([8]; 30 g/ha) [%] | Post-Emergence Herbicidal Activity (Percentage Phytotoxicity) BRSNN ([8]; 125 g/ha) [%] | Post-Emergence Herbicidal Activity (Percentage Phytotoxicity) ZEAMX ([4]; 8 g/ha (rate by row order)) [%] | Post-Emergence Herbicidal Activity (Percentage Phytotoxicity) POAAN ([5]; 8 g/ha (rate by row order)) [%] | Post-Emergence Herbicidal Activity (Percentage Phytotoxicity) TRZAW ([6]; 8 g/ha) [%] | Post-Emergence Herbicidal Activity (Percentage Phytotoxicity) DIGSA ([7]; 8 g/ha (rate by row order)) [%] | Post-Emergence Herbicidal Activity (Percentage Phytotoxicity) BRSNN ([8]; 8 g/ha) [%] |
| --- | --- | --- | --- | --- | --- | --- | --- | --- | --- | --- | --- | --- | --- | --- | --- | --- | --- | --- |
| CC#Cc1cc(C)c(C2C(=O)N(C)N(C)C2=O)c(C)c1 [Compound A1] | 0 | 0 | 30 | 90 | 100 | 50 | 80 | 30 | 80 | 80 | 90 | 70 | 70 |  |  |  |  |  |
| CC#Cc1cc(C)c(C2C(=O)N3CCCCCN3C2=O)c(C)c1 [Compound A23, 2-(2,6-dimethyl-4-prop-1-ynyl-phenyl)-6,7,8,9-tetrahydro-5H-pyrazolo[1,2-a]diazepine-1,3-dione] | 80 | 10 | 50 | 0 | 30 | 10 | 70 | 0 | 50 | 30 | 70 | 30 | 50 |  |  |  |  |  |
| CC#Cc1cc(C)c(-c2c(OC(=O)C(C)(C)C)n(C)n(C)c2=O)c(C)c1 [Compound P1] | 10 | 10 | 100 | 70 | 100 | 0 | 70 | 0 | 70 | 90 | 100 | 80 | 80 | 60 | 0 | 0 | 80 | 0 |
| CC#Cc1cc(C)c(-c2c(OC(=O)C(C)(C)C)n3n(c2=O)CCOCC3)c(C)c1 [Compound P4] | 100 | 80 | 100 | 90 | 100 | 70 | 90 | 40 | 80 | 90 | 90 | 80 | 80 | 30 | 50 | 10 | 80 | 70 |
